Laboratory results: patent EP0951284B1, “[…] DERIVATIVES” (priority 1996, dated 1998)
Where a name gives a salt, the structure may show the parent alone. Read-outs that look alike come from different tables or passages of the source.

Legend:
whole brain AChE = target: T1, whole brain AChE (Mus musculus, UniProt P21836); assay: Ex vivo measurement of brain AChE inhibition after sub-cutaneous administration; format: in vivo, mice; conditions: for ED50: sc, sub-cutaneous, mouse whole brain, at peak of activity, read-out: AChE Inhibition Ex vivo ED50 (AC)
T1 construct: the brains rapidly removed (minus cerebellum), weighed and homogenized in 0.1M phosphate buffer pH 8.0; from tissue; host or cells: mouse brain (minus cerebellum) homogenate supernatant
T1 sequence (P21836 32-614): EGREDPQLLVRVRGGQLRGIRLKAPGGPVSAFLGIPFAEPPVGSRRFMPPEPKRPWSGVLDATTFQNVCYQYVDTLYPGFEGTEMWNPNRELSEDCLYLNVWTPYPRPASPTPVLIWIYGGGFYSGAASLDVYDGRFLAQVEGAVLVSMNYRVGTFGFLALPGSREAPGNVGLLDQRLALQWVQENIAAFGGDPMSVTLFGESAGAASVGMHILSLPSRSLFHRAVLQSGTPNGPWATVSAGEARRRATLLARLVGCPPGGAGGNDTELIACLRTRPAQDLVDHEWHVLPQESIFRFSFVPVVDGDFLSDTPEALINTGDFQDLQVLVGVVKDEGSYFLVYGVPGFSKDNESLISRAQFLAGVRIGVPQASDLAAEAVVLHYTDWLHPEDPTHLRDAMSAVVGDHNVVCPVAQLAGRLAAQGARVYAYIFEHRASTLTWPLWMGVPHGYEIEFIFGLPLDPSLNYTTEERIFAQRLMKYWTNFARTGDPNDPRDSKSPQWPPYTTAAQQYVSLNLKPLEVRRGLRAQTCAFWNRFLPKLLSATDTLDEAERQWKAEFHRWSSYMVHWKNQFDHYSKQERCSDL
Description: Test drugs or saline were administered sub-cutaneously to male mice (Sabra strain, 28-35g). At least 4-5 mice were used per dose and a minimum of 3 doses per drug were tested. The mice were sacrificed 15, 30, 60, 70, 90, 120 or 180 minutes after drug administration, the brains rapidly removed (minus cerebellum), weighed and homogenized in 0.1M phosphate buffer pH 8.0, containing Triton (1mg/100g tissue) and centrifuged to remove cell debris. Aliquots (25 µl) of the supernatant were then incubated with acetylthiocholine and DTNB. AChE activity measured as described above. The % inhibition of whole brain AChE by each dose of drug was calculated by comparison with enzyme activity from 3 saline treated control mice run at the same time.

[1] = Acute toxicity in mice (sub-cutaneous, lethality within 6 hours); conditions: mouse, in vivo, sc; for selectivity ratio: LD50 divided by ED50 (acetylcholine esterase ex vivo), read-out: Therapeutic Ratio (LD/AC); for LD50 at 6 h: sub-cutaneous, mice, within 6 hours
Description: Drugs were administered sub-cutaneously in at least 3 doses, to a minimum of 10 mice per dose. […] Therapeutic Ratio was calculated as LD50 divided by ED50(acetylcholine esterase ex vivo).

MAO-A [2] = target: T2, MAO-A (Rattus norvegicus, UniProt P21396); assay: Inhibition of MAO activity in vitro, rat brain homogenate, 5-HT substrate
T2 sequence (P21396 1-526): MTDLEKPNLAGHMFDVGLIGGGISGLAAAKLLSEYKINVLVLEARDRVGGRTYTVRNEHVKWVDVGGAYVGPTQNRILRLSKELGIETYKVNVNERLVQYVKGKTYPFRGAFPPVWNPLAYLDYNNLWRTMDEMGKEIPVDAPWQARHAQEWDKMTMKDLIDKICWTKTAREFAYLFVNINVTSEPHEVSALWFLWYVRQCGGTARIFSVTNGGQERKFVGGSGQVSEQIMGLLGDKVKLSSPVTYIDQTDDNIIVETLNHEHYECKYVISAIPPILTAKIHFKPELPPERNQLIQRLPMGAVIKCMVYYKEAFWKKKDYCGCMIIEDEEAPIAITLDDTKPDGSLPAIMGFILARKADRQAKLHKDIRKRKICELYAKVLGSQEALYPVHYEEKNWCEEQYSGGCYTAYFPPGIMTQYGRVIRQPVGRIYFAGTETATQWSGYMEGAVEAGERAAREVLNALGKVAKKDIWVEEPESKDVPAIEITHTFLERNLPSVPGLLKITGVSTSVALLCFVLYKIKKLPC
Description: The MAO enzyme source was a homogenate of rat brain in 0.3M sucrose, which was centrifuged at 600G for 15 minutes. The supernatant was diluted appropriately in 0.05M phosphate buffer, and pre-incubated with serial dilutions of test compounds for 20 minutes at 37°C. ^14C-Labeled substrates (2-phenylethylamine, hereinafter PEA; 5-hydroxytryptamine, hereinafter 5-HT) were then added, and the incubation continued for a further 20 minutes (PEA), or 30-45 minutes (5-HT). Substrate concentrations used were 50µM (PEA) and 1mM (5-HT). In the case of PEA, enzyme concentration was chosen so that not more than 10% of the substrate was metabolized during the course of the reaction. The deaminated products were extracted into toluene-ethyl acetate (1:1, v/v) containing 0.6% (w/v) 2,5-diphenyloxazole prior to determination by liquid scintillation counting. Radioactivity in the eluate indicates the production of neutral and acidic metabolites formed as a result of MAO activity. Activity of MAO in the sample was expressed as a percentage of control activity in the absence of inhibitors after subtraction of appropriate blank values The activity determined using PEA as substrate is referred to as MAO-B, and that determined using 5-HT as MAO-A.

[3] = target: T3, Human erythrocyte acetylcholinesterase (Homo sapiens, UniProt P22303); assay: In vitro measurement of acetylcholinesterase (AChE) inhibition (Ellman method); format: biochemical; conditions: at time of peak activity, incubation 15 to 60 minutes at 37°C
T3 construct: Human erythrocyte acetylcholinesterase (type XIII, Sigma Israel); purchased Sigma Israel type XIII; host or cells: human erythrocytes
T3 sequence (P22303 32-617 isoform P22303-2 limits assumed): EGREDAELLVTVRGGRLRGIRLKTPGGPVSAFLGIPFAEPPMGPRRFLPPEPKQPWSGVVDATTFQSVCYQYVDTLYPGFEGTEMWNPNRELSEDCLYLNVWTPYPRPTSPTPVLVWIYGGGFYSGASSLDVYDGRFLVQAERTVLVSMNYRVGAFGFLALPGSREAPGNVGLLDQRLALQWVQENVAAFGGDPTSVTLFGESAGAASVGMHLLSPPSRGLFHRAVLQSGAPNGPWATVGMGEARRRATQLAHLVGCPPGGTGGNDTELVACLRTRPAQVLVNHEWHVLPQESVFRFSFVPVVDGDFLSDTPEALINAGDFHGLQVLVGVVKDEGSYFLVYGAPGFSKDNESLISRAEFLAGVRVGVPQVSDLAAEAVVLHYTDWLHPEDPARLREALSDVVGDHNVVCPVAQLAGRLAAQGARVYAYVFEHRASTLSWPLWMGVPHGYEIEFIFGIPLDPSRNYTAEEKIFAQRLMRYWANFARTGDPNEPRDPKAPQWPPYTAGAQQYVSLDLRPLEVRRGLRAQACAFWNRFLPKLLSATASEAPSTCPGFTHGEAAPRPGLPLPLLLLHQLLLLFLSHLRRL
Description: Human erythrocyte acetylcholinesterase (type XIII, Sigma Israel), was prepared in a stock solution of 1U/ml, containing Triton (1%) and bovine serum albumin (0.05%) in phosphate buffer (pH 8). The enzyme (0.05U) was incubated with 3-5 different concentrations of test compound (in triplicate) for periods of from 15 to 60 minutes at 37°C. […] The percentage inhibition of AChE by each concentration of drug is calculated by comparison with that of enzyme in the absence of drug.

MAO-B = assay: Inhibition of MAO activity ex vivo (brain tissue), PEA substrate; format: in vivo, mice; conditions: mouse brain tissue
Description: (§1) Male Sabra mice, weighing 45-50g were injected with test compound solutions (prepared in 0.9% saline). Each dose was administered to two or three mice. The mice were sacrificed two hours after drug administration or at a time corresponding to the peak AChE inhibition time (see Table 6). The brain and liver were rapidly dissected and stored in appropriate vials on ice. The tissues were weighed, diluted to 1/20 in sucrose 0.3M and stored at -20°C before performance of the MAO assay described above. The results given in Table 6 relate to measurements made on brain tissue only.

MAO-A [4] = assay: Inhibition of MAO activity ex vivo (brain tissue), 5-HT substrate; format: in vivo, mice; conditions: mouse brain tissue
Description: as §1

mice = assay: Survival time of mice in hypobaric hypoxic episode; format: in vivo
From the text: The model is based on that described in Nakanishi, M. et al. Life Sci. (1973) 13: 467; Oshiro, et al., J. Med. Chem. (1991) 34: 2004-2013; and US Patent 4,788,130.
A 12 liter desiccator (desiccator A) and a 2.5 liter desiccator (desiccator B) were separately connected to a vacuum pump. Desiccator B was disconnected and allowed to equilibrate with room air whilst desiccator A was evacuated to a pressure of 100mmHg. Four male ICR albino mice (22-28g) were placed in desiccator B. Desiccator B was then closed to room air and connected to desiccator A. The pressure inside desiccator B was monitored using a mercury manometer and at the point the pressure in desiccator B reached 200mmHg (usually within 14 seconds), the two desiccators were disconnected from the vacuum pump and the pump switched off. The survival time from the moment of induction of hypoxia to the time of cessation of respiration was recorded. for each mouse for a maximum of 15 minutes after which time room air was reintroduced to desiccator B. Survivors were monitored for signs of lethargy or vitality.
Effect of drug treatment was assessed as the percent of the survival time of the drug treated group with respect to the saline injected or vehicle injected control group. Control groups were run twice, before and after each experimental group and consisted of 8 mice in groups of 4 mice to ensure a constant residual volume of oxygen in all tests. The effect of each dose of test drug was determined in duplicate i.e. two groups of 4 mice.
Positive reference drugs were sodium pentobarbital at a dose of 40 mg/kg, and diazepam 10 mg/kg given 0.5h prior to hypoxia, physostigmine 0.2 and 0.4 mg/kg and neostigmine 0.2 mg/kg given sc 30 min before hypoxia. Methyl atropine 1 mg/kg was given sc. 10 min. before physostigmine.
The volume of injection was 0.2-0.3 mL per mouse (10 mL/kg). The initial dose was about one third of the reported LD50 for acetylcholine esterase inhibition. If no protection could be obtained, the dose was further increased to the nearest non-toxic dose. In case of protection, the dose was further reduced in an attempt to locate the "protective" dose range.

C#CCNC(C)Cc1cccc(OC(=O)N(C)CCC)c1 (racemic) [Compound 19, (rac)-3-(N-methyl,N-propyl-carbamyloxy)-α-methyl-N'-propargyl phenethylamine HCl]
Time to peak activity t (whole brain AChE; AChE inhibition): 30 to 60 min
ED50 (whole brain AChE): 170 µmol/kg
selectivity ratio [1]: 7.6
LD50 at 6 h [1]: 1300 µmol/kg
IC50 (MAO-A [2]): 14.6 µM
IC50 [3]: 20 µM
MAO-B Inhibition Ex vivo ED50 (MAO-B): 1.5 µmol/kg
MAO-A Inhibition Ex vivo ED50 (MAO-A [4]): >70 µmol/kg
Protection (% of control) (mice; 25 mg/kg sc, 60 min before hypoxia): 169±50 % of control
Protection (% of control) (mice; 50 mg/kg sc, 60 min before hypoxia): 309±253 % of control
Protection (% of control) (mice; 75 mg/kg sc, 60 min before hypoxia): 773±228 % of control

C#CC(C)NCCc1cccc(OC(=O)N(C)C)c1 (centres unmarked) [Compound 29]
ED50 (whole brain AChE): 2.5 µmol/kg
IC50 [3]: 0.15 µM
MAO-B Inhibition Ex vivo ED50 (MAO-B): >>12.5 µmoles/kg
MAO-A Inhibition Ex vivo ED50 (MAO-A [4]): >>12.5 µmoles/kg

CNCCc1cccc(OC(=O)N(C)C)c1 [Compound 3]
Time to peak activity t (whole brain AChE; AChE inhibition): 10 min
Time to return to 50% of peak t (whole brain AChE; AChE inhibition): 30 min
ED50 (whole brain AChE): 39.2 µmol/kg
selectivity ratio [1]: 1.5
LD50 at 6 h [1]: 57.7 µmol/kg
IC50 (MAO-A [2]): 50 µM
IC50 [3]: 0.31 µM

CCN(C)C(=O)Oc1cccc(CCN)c1 [Compound 4]
IC50 (MAO-A [2]): 200 µM
IC50 [3]: 48.4 µM

CCCC(C)C1(CC)C(=O)NC(=O)NC1=O (centres unmarked) [Nembutal, sodium pentobarbital, reference compound]
Protection (% of control) (mice; 40 mg/kg, 30 min before hypoxia): 253±200 % of control

CN1C(=O)CN=C(c2ccccc2)c2cc(Cl)ccc21 [Diazepam, diazepam, reference compound]
Protection (% of control) (mice; 10 mg/kg, 30 min before hypoxia): 316±78 % of control

C#CCN(C)C(C)Cc1cccc(OC(=O)N(C)CCC)c1 (racemic) [Compound 35]
ED50 (whole brain AChE): > 200 µmol/kg
IC50 [3]: 50 µM

C#CC(C)NCCc1cccc(OC(=O)N(C)CC)c1 (centres unmarked) [Compound 30]
ED50 (whole brain AChE): 45 µmol/kg
IC50 [3]: 14 µM
MAO-B Inhibition Ex vivo ED50 (MAO-B): >>270 µmoles/kg
MAO-A Inhibition Ex vivo ED50 (MAO-A [4]): >>270 µmoles/kg

CN(C)CCc1cccc(OC(=O)N(C)C)c1 [Compound 10]
Time to peak activity t (whole brain AChE; AChE inhibition): 15 to 30 min
ED50 (whole brain AChE): 2 µmol/kg
selectivity ratio [1]: 8
LD50 at 6 h [1]: 16 µmol/kg
IC50 (MAO-A [2]; read-out: MAO-A Inhibition In vitro IC50, rat brain homogenate, 5-HT 1mM): 51 µM
IC50 [3]: 0.2 µM

C#CCNC(C)Cc1cccc(OC(=O)N(C)C2CCCCC2)c1 (centres unmarked) [Compound 36]
ED50 (whole brain AChE): > 50 µmol/kg
IC50 [3]: 3.4 µM

C#CCN(C)C(C)Cc1cccc(OC(=O)N(C)CCCCCC)c1 (racemic) [Compound 27, (rac)-3-(N-methyl,N-hexyl-carbamyloxy)-α-methyl-N'-methyl, N'-propargyl phenethylamine mesylate]
ED50 (whole brain AChE): > 50 µmol/kg
LD50 at 6 h [1]: > 1000 µmol/kg
IC50 (MAO-A [2]): 20 µM
IC50 [3]: 3.1 µM
MAO-B Inhibition Ex vivo ED50 (MAO-B): 3.4 µmol/kg
MAO-A Inhibition Ex vivo ED50 (MAO-A [4]): >430 µmol/kg

CCN(C)C(=O)Oc1cccc(CCNC)c1 [Compound 5]
IC50 (MAO-A [2]): 25 µM
IC50 [3]: 20.8 µM
MAO-B Inhibition Ex vivo ED50 (MAO-B): >>160 µmoles/kg
MAO-A Inhibition Ex vivo ED50 (MAO-A [4]): >>160 µmoles/kg

C#CCN(C)[C@@H](C)Cc1cccc(OC(=O)N(C)CCCCCC)c1 [Compound 38, (S)-3-(N-methyl, N-hexyl-carbamyloxy)-α-methyl-N'-methyl,N'-propargyl phenethylamine ethanesulfonate]
ED50 (whole brain AChE): > 50 µmol/kg
IC50 [3]: 3.1 µM

C#CCN(C)C(C)Cc1cccc(OC(=O)N(C)C2CCCCC2)c1 (racemic) [Compound 28, (rac)-3-(N-methyl,N-cyclohexyl-carbamyloxy)-α-methyl-N'-methyl, N'-propargyl phenethylamine HCl]
Time to peak activity t (whole brain AChE; AChE inhibition): 60 min
ED50 (whole brain AChE): 21 µmol/kg
selectivity ratio [1]: > 47
LD50 at 6 h [1]: 2000 µmol/kg
IC50 (MAO-A [2]): 1.7 µM
IC50 [3]: 11.5 µM
MAO-B Inhibition Ex vivo ED50 (MAO-B): 1.75 µmol/kg
MAO-A Inhibition Ex vivo ED50 (MAO-A [4]): 109 µmol/kg

CN(C)C(=O)Oc1cccc(CCN)c1 [Compound 1]
IC50 (MAO-A [2]): 100 µM
IC50 [3]: 0.31 µM
